Laboratory results taken from patent US12351590B2, “Pyrrolopyrimidine compound and use thereof” (GUANGZHOU JOYO PHARMATECH CO., LTD., priority 2019, dated 2025).

Assays:
JAK1(h) = JAK1(h) (Homo sapiens (Human), UniProt P23458); test: In vitro activity assay of JAK1 kinase (radiometric [γ-33P]-ATP); format: biochemical; settings: recombinant human JAK1
Method: (§1) Recombinant human JAK1, JAK2, JAK3 and TYK2 […], and main instruments and reagents were provided by Eurofins, UK
(§2) JAK2, JAK3 and TYK2 dilutions: 20 mM 3-(N-morpholino)propanesulfonic acid (MOPS), 1 mM EDTA, 0.01% Brij-35.5% glycerol, 0.1% β-mercaptoethanol, 1 mg/mL BSA; JAK1 dilution: 20 mM TRIS, 0.2 mM EDTA, 0.1% β-mercaptoethanol, 0.01% Brij-35.5% glycerol. All compounds were prepared in 100% DMSO and brought to 50 fold the final assay concentration. The test compounds were serially 3-fold diluted to 9 concentrations from 10 μM to 0.001 μM with DMSO content in the assay reaction being 2%. Working stock solutions of the compounds were added to the assay wells as the first component of the reaction, and then the remaining components were added according to the assay protocol detailed below.
JAK1(h) was incubated with 20 mM Tris/HCl pH 7.5, 0.2 mM EDTA, 500 μM MGEEPLYWSFPAKKK, 10 mM magnesium acetate and [γ-^33P]-ATP (activity and concentration were determined as required). The reaction was started by adding the Mg/ATP mixture and terminated by adding 0.5% phosphoric acid after 40 min of incubation at room temperature. 10 μL of the reaction mixture was then added dropwise on a P30 filter pad and washed three times with 0.425% phosphoric acid and once with methanol within 4 minutes, dried and analyzed using a scintillation counter.

JAK2(h) = JAK2(h) (Homo sapiens (Human), UniProt O60674); test: In vitro activity assay of JAK2 kinase (radiometric [γ-33P]-ATP); format: biochemical; settings: recombinant human JAK2
JAK2(h), sequence (O60674 whole entry): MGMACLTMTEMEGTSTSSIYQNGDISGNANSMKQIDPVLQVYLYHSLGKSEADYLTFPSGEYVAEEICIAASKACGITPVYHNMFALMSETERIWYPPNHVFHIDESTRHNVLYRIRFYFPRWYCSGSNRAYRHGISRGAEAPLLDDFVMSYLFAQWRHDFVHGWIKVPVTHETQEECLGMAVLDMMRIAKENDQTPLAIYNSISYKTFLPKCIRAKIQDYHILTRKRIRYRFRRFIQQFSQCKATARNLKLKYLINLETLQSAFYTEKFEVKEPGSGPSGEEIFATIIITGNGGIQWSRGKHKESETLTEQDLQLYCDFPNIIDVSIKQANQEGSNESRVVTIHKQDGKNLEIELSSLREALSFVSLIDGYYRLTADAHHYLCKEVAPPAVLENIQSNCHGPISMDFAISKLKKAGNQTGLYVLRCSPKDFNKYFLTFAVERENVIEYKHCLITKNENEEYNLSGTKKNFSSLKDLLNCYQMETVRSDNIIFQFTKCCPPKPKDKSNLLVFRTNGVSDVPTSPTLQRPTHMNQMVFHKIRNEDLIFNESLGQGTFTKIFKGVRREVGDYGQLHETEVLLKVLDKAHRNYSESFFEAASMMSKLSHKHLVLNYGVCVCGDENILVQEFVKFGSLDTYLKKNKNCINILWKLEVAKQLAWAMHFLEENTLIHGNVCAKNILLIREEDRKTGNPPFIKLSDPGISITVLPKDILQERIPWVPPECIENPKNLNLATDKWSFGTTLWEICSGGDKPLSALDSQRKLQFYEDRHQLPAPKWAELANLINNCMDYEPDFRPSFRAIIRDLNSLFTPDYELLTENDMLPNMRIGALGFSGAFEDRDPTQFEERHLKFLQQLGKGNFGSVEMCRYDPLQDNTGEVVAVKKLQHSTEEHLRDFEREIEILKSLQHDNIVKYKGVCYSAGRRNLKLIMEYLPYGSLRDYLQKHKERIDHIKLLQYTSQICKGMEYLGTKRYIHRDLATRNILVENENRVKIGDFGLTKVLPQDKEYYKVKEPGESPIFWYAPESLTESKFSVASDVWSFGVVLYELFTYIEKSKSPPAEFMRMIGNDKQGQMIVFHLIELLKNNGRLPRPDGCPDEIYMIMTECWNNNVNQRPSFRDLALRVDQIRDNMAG
Method: as §1, §2
JAK2(h) was incubated with 8 mM MOPS pH 7.0, 0.2 mM EDTA, 100 μM […], 10 mM magnesium acetate and [γ-^33P]-ATP (activity and concentration were determined as required). The reaction was started by adding the Mg/ATP mixture and terminated by adding 0.5% phosphoric acid after 40 min of incubation at room temperature. 10 μL of the reaction mixture was then added dropwise on a P30 filter pad and washed three times with 0.425% phosphoric acid and once with methanol within 4 minutes, dried and analyzed using a scintillation counter.

JAK3(h) = JAK3(h) (Homo sapiens (Human), UniProt P52333); test: In vitro activity assay of JAK3 kinase (radiometric [γ-33P]-ATP); format: biochemical; settings: recombinant human JAK3
JAK3(h), sequence (P52333 whole entry): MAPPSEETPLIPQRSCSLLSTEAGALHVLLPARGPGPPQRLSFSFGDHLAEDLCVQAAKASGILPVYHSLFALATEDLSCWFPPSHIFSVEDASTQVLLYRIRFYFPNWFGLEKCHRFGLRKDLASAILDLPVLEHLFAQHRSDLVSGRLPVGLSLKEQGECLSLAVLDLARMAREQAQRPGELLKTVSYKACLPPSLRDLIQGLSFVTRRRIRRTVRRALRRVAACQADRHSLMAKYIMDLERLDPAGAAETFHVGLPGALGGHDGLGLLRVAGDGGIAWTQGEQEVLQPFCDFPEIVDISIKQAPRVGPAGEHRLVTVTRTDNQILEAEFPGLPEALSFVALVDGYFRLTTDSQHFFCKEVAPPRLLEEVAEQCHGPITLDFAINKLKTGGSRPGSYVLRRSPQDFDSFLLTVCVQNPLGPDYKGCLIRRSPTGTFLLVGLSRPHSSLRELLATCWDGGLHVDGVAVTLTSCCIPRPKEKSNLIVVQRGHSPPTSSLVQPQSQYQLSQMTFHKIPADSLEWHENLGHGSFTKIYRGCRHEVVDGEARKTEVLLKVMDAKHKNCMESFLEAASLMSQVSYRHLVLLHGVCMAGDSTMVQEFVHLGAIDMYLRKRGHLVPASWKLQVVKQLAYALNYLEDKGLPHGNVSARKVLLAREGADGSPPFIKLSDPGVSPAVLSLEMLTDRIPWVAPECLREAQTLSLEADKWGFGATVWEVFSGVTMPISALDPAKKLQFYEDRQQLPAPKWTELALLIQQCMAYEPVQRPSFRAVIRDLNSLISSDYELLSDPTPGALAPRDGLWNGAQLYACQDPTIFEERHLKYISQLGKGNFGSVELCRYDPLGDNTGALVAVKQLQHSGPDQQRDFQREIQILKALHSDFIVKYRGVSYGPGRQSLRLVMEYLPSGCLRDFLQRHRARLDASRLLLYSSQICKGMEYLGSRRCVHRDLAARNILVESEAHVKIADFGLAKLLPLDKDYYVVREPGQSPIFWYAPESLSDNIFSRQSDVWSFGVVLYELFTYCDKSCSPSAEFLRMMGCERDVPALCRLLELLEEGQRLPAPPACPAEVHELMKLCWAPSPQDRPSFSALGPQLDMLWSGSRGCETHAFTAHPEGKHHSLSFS
Method: as §1, §2
JAK3(h) was incubated with 8 mM MOPS pH 7.0, 0.2 mM EDTA, 500 μM GGEEEEYFELVKKKK, 10 mM magnesium acetate and [γ-^33P]-ATP (activity and concentration were determined as required). The reaction was started by adding the Mg/ATP mixture and terminated by adding 0.5% phosphoric acid after 40 min of incubation at room temperature. 10 μL of the reaction mixture was then added dropwise on a P30 filter pad and washed three times with 0.425% phosphoric acid and once with methanol within 4 minutes, dried and analyzed using a scintillation counter.

TYK2(h) = TYK2(h) (Homo sapiens (Human), UniProt P29597); test: In vitro activity assay of TYK2 kinase (radiometric [γ-33P]-ATP); format: biochemical; settings: recombinant human TYK2
TYK2(h), sequence (P29597 whole entry): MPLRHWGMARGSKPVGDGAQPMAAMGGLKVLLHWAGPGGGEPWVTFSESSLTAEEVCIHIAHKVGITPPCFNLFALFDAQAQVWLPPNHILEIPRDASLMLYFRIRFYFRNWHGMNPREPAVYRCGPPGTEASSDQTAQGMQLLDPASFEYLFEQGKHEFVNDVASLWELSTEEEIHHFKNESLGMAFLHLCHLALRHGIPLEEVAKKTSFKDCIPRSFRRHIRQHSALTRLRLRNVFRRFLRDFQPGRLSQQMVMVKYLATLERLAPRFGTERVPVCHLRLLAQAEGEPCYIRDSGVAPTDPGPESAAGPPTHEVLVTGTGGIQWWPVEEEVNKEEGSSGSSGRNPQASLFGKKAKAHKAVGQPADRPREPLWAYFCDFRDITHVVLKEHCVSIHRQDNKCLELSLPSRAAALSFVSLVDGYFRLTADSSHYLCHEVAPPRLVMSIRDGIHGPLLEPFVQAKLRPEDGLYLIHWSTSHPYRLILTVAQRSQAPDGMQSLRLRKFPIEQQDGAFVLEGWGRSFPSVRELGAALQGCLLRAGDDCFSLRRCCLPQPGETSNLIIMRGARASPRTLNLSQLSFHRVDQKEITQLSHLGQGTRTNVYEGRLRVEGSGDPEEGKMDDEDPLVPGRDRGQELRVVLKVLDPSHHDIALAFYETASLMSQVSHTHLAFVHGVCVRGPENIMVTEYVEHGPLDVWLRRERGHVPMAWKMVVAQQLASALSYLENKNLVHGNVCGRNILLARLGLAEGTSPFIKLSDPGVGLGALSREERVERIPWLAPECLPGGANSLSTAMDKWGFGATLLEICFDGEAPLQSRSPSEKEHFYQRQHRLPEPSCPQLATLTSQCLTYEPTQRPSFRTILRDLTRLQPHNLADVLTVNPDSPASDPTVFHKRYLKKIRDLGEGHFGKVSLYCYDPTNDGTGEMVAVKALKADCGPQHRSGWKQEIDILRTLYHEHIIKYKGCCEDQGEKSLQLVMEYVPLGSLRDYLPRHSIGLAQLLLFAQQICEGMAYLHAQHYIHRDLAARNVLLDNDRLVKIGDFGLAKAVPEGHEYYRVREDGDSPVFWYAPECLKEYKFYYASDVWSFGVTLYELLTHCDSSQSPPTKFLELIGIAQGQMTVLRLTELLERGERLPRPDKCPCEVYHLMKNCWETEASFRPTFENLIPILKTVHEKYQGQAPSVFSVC
Method: as §1, §2
TYK2(h) was incubated with 8 mM MOPS pH 7.0, 0.2 mM EDTA, 250 μM GGMEDIYFEFMGGKKK, 10 mM magnesium acetate and [γ-^33P]-ATP (activity and concentration were determined as required). The reaction was started by adding the Mg/ATP mixture and terminated by adding 0.5% phosphoric acid after 40 min of incubation at room temperature. 10 μL of the reaction mixture was then added dropwise on a P30 filter pad and washed three times with 0.425% phosphoric acid and once with methanol within 4 minutes, dried and analyzed using a scintillation counter.

Caco-2 cells = system: Caco-2 cells
Method: The transport buffer solution was HBSS (Hanks' balanced salt solution) and 10 mM HEPES [N-(2-hydroxyethyl)piperazine-N′-(2-ethanesulfonic acid)], pH 7.40±0.05; Caco-2 cells were purchased from ATCC.
Caco-2 cells were seeded at 1×10^5 cells/cm^2 in polyethylene terephthalate (PET) 96-well BD insert plates, and the medium was refreshed every 4-5 days until day 21-28 to form a confluent monolayer. Test compounds were tested in a two-way format at 2 μM in duplicate. Digoxin was added at 10 μM in the two-way format, and nadolol and metoprolol were added at 2 μM in the two-way format. Final DMSO concentration was adjusted to less than 1%. The plates were incubated in a CO2 incubator at 37±1° C. for 2 h and at 5% CO2 and saturated humidity without shaking. All samples were mixed with acetonitrile containing an internal standard, centrifuged at 4000 rpm for 10 min. 100 microliters of supernatant was diluted with 100 microliters of distilled water for LC/MS/MS analysis. By LC/MS/MS analysis, the concentrations of the test compounds and the reference compound in the initial test compound solution, the test compound solution and the test article solution using the peak area ratio of the analyte to the internal standard. After the transport test, the integrity of the Caco-2 cell monolayer was determined by fluorescein yellow exclusion reaction, and the apparent permeability coefficient and efflux ratio were calculated.

[1] = Pharmacokinetic (PK) study in mice; format: in vivo, mice (C57BL/6); settings: male C57BL/6 mice
Method: Clear solutions obtained by dissolving the test compounds were administered to male mice (C57BL/6) or rats (SD) by tail vein injection and oral gavage (overnight fasting, 7-8 weeks old). After the administration of the test compounds, plasma was separated from blood collected from the mandibular vein and centrifugation at 0.117, 0.333, 1, 2, 4, 7 and 24 h for the intravenous injection group (1 mg/kg), and at 0.25, 0.5, 1, 2, 4, 8 and 24 h for the oral gavage group (3 mg/kg). The plasma concentration was measured by LC-MS/MS method, and the relevant pharmacokinetic parameters were calculated by WinNonlin™ Version 6.3 pharmacokinetic software using non-compartmental model linear logarithmic trapezoid method.

[2] = system: rat adjuvant-induced arthritis model; test: Adjuvant-induced arthritis (AIA) in rats, in-vivo pharmacodynamic study; design: species or system Lewis rats; settings: for Inhibition on area under the clinical score curve, AUC (%): oral, 2 times daily, female Lewis rats; for Mean clinical arthritis score: 10 mg/kg group
Method: The compounds disclosed herein were tested for their efficacy on arthritis using a rat adjuvant-induced arthritis model. Female, 160- and 180-gram Lewis rats were anesthetized with isoflurane and injected subcutaneously with 0.1 mL of Mycobacterium tuberculosis suspension in the left hind paw. The animals were grouped and administered with the compounds 13 days after modeling. The test compound 1-13 was dissolved in a mixed vehicle of [5% DMSO, 95% (12% SBE-β-CD), 0.5% MC]. The female Lewis rats were orally administered 2 times daily (8 animals in each group).

[3] = i.v. 1 mg/kg and oral gavage 3 mg/kg groups, route not given

JAK1(h), sequence (P23458 whole entry): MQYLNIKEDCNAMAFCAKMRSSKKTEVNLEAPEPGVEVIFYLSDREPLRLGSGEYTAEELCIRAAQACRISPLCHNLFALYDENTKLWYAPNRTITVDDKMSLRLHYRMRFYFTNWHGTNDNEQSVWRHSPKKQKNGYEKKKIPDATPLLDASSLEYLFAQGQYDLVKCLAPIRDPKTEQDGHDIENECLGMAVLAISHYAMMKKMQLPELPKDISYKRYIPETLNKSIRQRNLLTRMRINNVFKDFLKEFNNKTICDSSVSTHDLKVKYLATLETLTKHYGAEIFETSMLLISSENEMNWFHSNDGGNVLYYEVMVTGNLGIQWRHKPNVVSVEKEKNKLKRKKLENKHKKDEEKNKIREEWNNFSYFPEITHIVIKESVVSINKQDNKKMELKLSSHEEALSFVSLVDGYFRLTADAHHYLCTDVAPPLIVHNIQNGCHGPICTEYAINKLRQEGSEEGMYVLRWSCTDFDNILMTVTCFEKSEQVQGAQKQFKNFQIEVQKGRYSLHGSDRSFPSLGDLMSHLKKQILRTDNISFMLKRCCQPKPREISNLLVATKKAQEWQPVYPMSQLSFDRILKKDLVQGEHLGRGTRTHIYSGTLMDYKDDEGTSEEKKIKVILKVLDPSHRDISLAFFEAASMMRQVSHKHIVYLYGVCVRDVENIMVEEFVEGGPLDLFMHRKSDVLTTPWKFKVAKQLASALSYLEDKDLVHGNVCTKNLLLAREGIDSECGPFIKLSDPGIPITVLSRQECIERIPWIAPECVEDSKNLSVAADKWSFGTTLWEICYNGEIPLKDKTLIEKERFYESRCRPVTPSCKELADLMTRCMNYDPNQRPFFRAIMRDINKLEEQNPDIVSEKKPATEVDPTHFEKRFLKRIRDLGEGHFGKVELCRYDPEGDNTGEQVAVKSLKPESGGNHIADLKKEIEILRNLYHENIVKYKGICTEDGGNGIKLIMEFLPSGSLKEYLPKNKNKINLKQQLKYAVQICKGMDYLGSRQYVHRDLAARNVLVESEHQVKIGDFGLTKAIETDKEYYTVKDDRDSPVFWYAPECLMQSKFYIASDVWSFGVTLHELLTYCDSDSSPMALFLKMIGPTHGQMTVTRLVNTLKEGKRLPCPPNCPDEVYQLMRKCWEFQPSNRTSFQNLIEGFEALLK

| Compound | IC50 (JAK1(h)) [µM] | IC50 (JAK2(h)) [µM] | IC50 (JAK3(h)) [µM] | IC50 (TYK2(h)) [µM] | Efflux ratio (Caco-2 cells; Caco-2) | Mean apparent permeability coefficient Mean Papp (10^−6 cm/s) A to B (Caco-2 cells; Caco-2, pH 7.4) | Mean apparent permeability coefficient Mean Papp (10^−6 cm/s) B to A (Caco-2 cells; Caco-2, pH 7.4) | AUC0-inf [1, 3] [µM·h] | Cmax [1, 3] [µM] | T1/2 [1, 3] [h] | Bioavailability (%) ([1]; oral gavage 3 mg/kg vs i.v. 1 mg/kg) | Effect on the weight loss trend of animals caused by disease attack ([2]; 3 mg/kg and 10 mg/kg, vs solvent control group, significant difference since day 20) | Therapeutic effect (inhibition rate versus vehicle control) ([2]; 3 mg/kg and 10 mg/kg, P<0.0001 versus vehicle control) | Inhibition on area under the clinical score curve, AUC (%) ([2]; 3 mg/kg) | Mean clinical arthritis score ([2]; day 13 (start of dosing)) [points] | Mean clinical arthritis score ([2]; day 27 (study endpoint)) [points] | Inhibition on area under the clinical score curve, AUC (%) ([2]; 10 mg/kg) | Increase in clinical arthritis score ([2]; dose-dependent, 3 and 10 mg/kg) | Increase in paw volume ([2]; dose-dependent, 3 and 10 mg/kg) |
| --- | --- | --- | --- | --- | --- | --- | --- | --- | --- | --- | --- | --- | --- | --- | --- | --- | --- | --- | --- |
| CN(c1ncnc2[nH]ccc12)[C@@H]1CCc2cc(C#N)nn2C1 [Compound 1-13] | 0.001 | 0.008 | 0.118 | 0.015 | 1.09 | 28.58 10^−6 cm/s | 31.18 10^−6 cm/s | 12.765 | 6 | 1.89 | 88.4 | significant relieving effect | significant therapeutic effect | 49.6 | 6 | 1.4 | 60.5 | inhibited | inhibited |
| CC(C)(C)NCC(O)COc1cccc2c1CC(O)C(O)C2 (centres unmarked) [Nadolol, reference compound] |  |  |  |  |  | 0.16 10^−6 cm/s |  |  |  |  |  |  |  |  |  |  |  |  |  |
